Measured values: patent US9353062B2, “Substituted quinolines as bruton's tyrosine kinases inhibitors” (HangzhouDeRenYuCheng Biotechnology Ltd, priority 2012, dated 2016)
pIC50: −log10 of the molar value.

What was measured:
[1] = target: T1, Btk (Homo sapiens (Human), UniProt Q06187); experiment: Btk kinase assay, method B (Kinase-Glo Plus luminescence); format: biochemical; conditions: 10 μM ATP
Description: (§1) An in vitro assay which determines the ability of a test compound to inhibit Btk.
b) Method B conducts the kinase assay with the following condition and procedure: The assay was performed using Kinase-Glo Plus luminescence kinase assay kit (Promega). It measures kinase activity by quantitating the amount of ATP remaining in solution following a kinase reaction. The luminescent signal from the assay is correlated with the amount of ATP present and is inversely correlated with the amount of kinase activity.
The compounds were diluted in 10% DMSO and 5 μl of the dilution was added to a 50 μl reaction so that the final concentration of DMSO is 1% in all of reactions. All of the enzymatic reactions were conducted at 30° C. for 40 minutes. […] After the enzymatic reaction, 50 μl of Kinase-Glo Plus Luminescence kinase assay solution (Promega) was added to each reaction and incubate the plate for 5 minutes at room temperature. Luminescence signal was measured using a BioTek Synergy 2 microplate reader. […] The luminescence data were analyzed using the computer software, Graphpad Prism. The difference between luminescence intensities in the absence of Btk (Lut) and in the presence of Btk (Luc) was defined as 100% activity (Lut−Luc). […] The IC50 value was determined by the concentration causing a half-maximal percent activity. […]

[2] = test system: BTK signaling in Ramos cells; experiment: Btk Ramos Cellular Assay (phosphorylation of BTK substrate PLCγ2); format: cell-based; conditions: 1 hour compound incubation, anti-human IgM stimulation, PLCγ2 phosphorylation blot, read-out: inhibition of BTK signaling in Ramos cells, IC50
Description: Ramos cells were grown in suspension in T225 flasks, spun down, resuspended in 50 mL serum-free media and incubated for 1 hour. Compound was added to Ramos cells in serum free media to a final concentration of 1, 0.1, 0.01, or 0.001 μM. Ramos cells were incubated with compound for 1 hour, washed again and resuspended in 100 μL serum-free media. Cells were then stimulated with 1 μg of goat F(ab′)2 Anti-Human IgM and incubated on ice for 10 minutes to activate B cell receptor signaling pathways. After 10 minutes, the cells were washed once with PBS and then lysed on ice with Invitrogen Cell Extraction buffer. Sixteen μg total protein from lysates was loaded on gels and blots were probed for phosphorylation of the BTK substrate PLCγ2.

[3] = target: T1, Btk; experiment: Btk kinase assay, method A (33P-ATP radiometric); format: biochemical; conditions: 10 μM ATP
Description: as §1
a) Method A conducts the kinase assay with the following condition and procedure: Reagent: Base Reaction Buffer; 20 mM Hepes (pH 7.5), 10 mM MgCl2, 1 mM EGTA, 0.02% Brij35, 0.02 mg/ml BSA, 0.1 mM Na3VO4, 2 mM DTT, 1% DMSO.
1. Prepare indicated substrate in freshly prepared Base Reaction Buffer.
2. Deliver any required cofactors to the substrate solution obtained in step 1.
3. Deliver indicated kinase into the substrate solution prepared in step 2 and gently mix.
4. Deliver compounds in DMSO into the kinase reaction mixture prepared in step 3.
5. Deliver ^33P-ATP (specific activity 0.01 μCi/μl final) into the reaction mixture prepared in step 4 to initiate the reaction.
6. Incubate kinase reaction for 120 min. at room temperature.
7. Reactions are spotted onto P81 ion exchange paper (Whatman #3698-915).
8. Washing filters extensively in 0.75% Phosphoric acid.
Compounds were tested in 10-dose IC50 mode with 3-fold serial dilution starting at 10 μM; Reactions were carried out at 10 μM ATP.

T1 sequence (Q06187 whole entry, species assumed): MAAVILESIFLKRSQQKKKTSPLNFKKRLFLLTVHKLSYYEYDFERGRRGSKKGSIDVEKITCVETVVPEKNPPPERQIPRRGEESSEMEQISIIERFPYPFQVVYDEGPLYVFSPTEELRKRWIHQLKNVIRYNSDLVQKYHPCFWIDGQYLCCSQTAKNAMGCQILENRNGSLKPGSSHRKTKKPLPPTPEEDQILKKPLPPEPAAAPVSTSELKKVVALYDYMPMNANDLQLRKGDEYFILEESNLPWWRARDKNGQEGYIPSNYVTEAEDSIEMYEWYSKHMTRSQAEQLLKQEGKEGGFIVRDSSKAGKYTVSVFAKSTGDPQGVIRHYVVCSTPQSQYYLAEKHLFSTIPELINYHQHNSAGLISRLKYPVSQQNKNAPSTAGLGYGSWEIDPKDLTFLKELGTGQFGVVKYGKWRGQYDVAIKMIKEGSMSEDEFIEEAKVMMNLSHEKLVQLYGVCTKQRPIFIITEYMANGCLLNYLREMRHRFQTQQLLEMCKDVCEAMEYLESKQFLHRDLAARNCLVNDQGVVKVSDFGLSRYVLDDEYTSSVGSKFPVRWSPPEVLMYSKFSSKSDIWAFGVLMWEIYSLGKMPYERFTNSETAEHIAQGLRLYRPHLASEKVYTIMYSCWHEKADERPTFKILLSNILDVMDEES

SMILES	pIC50 [1]	pIC50 [2]	pIC50 [3]
CN(C)C/C=C/C(=O)Nc1ccc2ncc(C#N)c(Nc3ccc(Oc4ccccc4)cc3)c2c1 [Example 2, (E)-N-(3-cyano-4-((4-phenoxyphenyl)amino)quinolin-6-yl)-4-(dimethylamino)but-2-enamide]	> 7.00	–	–
CCOc1cc2ncc(C#N)c(Nc3ccc(Oc4ccccc4)cc3)c2cc1NC(=O)/C=C/CN(C)C [Example 1, (E)-N-(3-cyano-7-ethoxy-4-((4-phenoxyphenyl)amino)quinolin-6-yl)-4-(dimethylamino)but-2-enamide]	> 7.00	> 7.00	9.19
